Among the data in the NIST ThermoML archive (doi:10.1016/j.jct.2008.12.005) are activity coefficient values, retold here.

Numbers after ± are expanded uncertainties.

A short description of the first data set: activity coefficient (dimensionless); of the first substance listed, at infinite dilution; xn = mol fraction of the nth substance listed. Conditions: 298.15 K; 101 kPa; Liquid; Chromatography; x1 = 0.
Turning to `C=CCCC` [1-pentene] + CC[S+](CC)CC.O=S(=O)([N-]S(=O)(=O)C(F)(F)F)C(F)(F)F, the activity coefficient worked out at 8.81 ± 0.6.

In the case of `CCCCC` [pentane] + CC[S+](CC)CC.O=S(=O)([N-]S(=O)(=O)C(F)(F)F)C(F)(F)F, the activity coefficient amounted to 21.6 ± 1.5.

On to `COC(C)(C)C` [2-methoxy-2-methylpropane] + CC[S+](CC)CC.O=S(=O)([N-]S(=O)(=O)C(F)(F)F)C(F)(F)F, for which the activity coefficient is 2.92 ± 0.2.

`C=CCCCCC` [1-heptene] + CC[S+](CC)CC.O=S(=O)([N-]S(=O)(=O)C(F)(F)F)C(F)(F)F: the activity coefficient was determined as 18.3 ± 1.3.

On to `c1ccccc1` [benzene] + CC[S+](CC)CC.O=S(=O)([N-]S(=O)(=O)C(F)(F)F)C(F)(F)F, for which the activity coefficient was found to be 1.08 ± 0.07.

As for `C1CCCCCC1` [cycloheptane] + CC[S+](CC)CC.O=S(=O)([N-]S(=O)(=O)C(F)(F)F)C(F)(F)F, the activity coefficient was determined as 21.7 ± 1.5.

As to `C#CCCCCCC` [1-octyne] + CC[S+](CC)CC.O=S(=O)([N-]S(=O)(=O)C(F)(F)F)C(F)(F)F, the activity coefficient came out at 7.87 ± 0.54.

Take `C=CCCCCCC` [oct-1-ene] + CC[S+](CC)CC.O=S(=O)([N-]S(=O)(=O)C(F)(F)F)C(F)(F)F: the activity coefficient turned out to be 27 ± 1.8.

In the case of `CCCCCCCC` [octane] + CC[S+](CC)CC.O=S(=O)([N-]S(=O)(=O)C(F)(F)F)C(F)(F)F, the activity coefficient was found to be 59.6 ± 4.1.

`CCCCCCCCCC` [decane] + CC[S+](CC)CC.O=S(=O)([N-]S(=O)(=O)C(F)(F)F)C(F)(F)F: the activity coefficient stood at 131 ± 9.

In the case of `C1CCCCC1` [cyclohexane] + CC[S+](CC)CC.O=S(=O)([N-]S(=O)(=O)C(F)(F)F)C(F)(F)F, the activity coefficient was determined as 16.1 ± 1.1.

On to `Cc1ccccc1` [toluene] + CC[S+](CC)CC.O=S(=O)([N-]S(=O)(=O)C(F)(F)F)C(F)(F)F, for which the activity coefficient was found to be 1.54 ± 0.1.

The same data set, now with this note: 308.15 K; 101 kPa; Liquid; Chromatography; x1 = 0.
Turning to `C=CCCC` [1-pentene] + CC[S+](CC)CC.O=S(=O)([N-]S(=O)(=O)C(F)(F)F)C(F)(F)F, the activity coefficient is 8.41 ± 0.57.

With `CCCCC` [pentane] + CC[S+](CC)CC.O=S(=O)([N-]S(=O)(=O)C(F)(F)F)C(F)(F)F, the activity coefficient was found to be 19.9 ± 1.4.

Take `CCCCO` [butan-1-ol] + CC[S+](CC)CC.O=S(=O)([N-]S(=O)(=O)C(F)(F)F)C(F)(F)F: the activity coefficient was 3.32 ± 0.23.

With `COC(C)(C)C` [2-methoxy-2-methylpropane] + CC[S+](CC)CC.O=S(=O)([N-]S(=O)(=O)C(F)(F)F)C(F)(F)F, the activity coefficient is 2.94 ± 0.2.

As to `C=CCCCCC` [1-heptene] + CC[S+](CC)CC.O=S(=O)([N-]S(=O)(=O)C(F)(F)F)C(F)(F)F, the activity coefficient amounted to 17.2 ± 1.2.

`c1ccccc1` [benzene] + CC[S+](CC)CC.O=S(=O)([N-]S(=O)(=O)C(F)(F)F)C(F)(F)F: the activity coefficient was determined as 1.1 ± 0.07.

Turning to `C1CCCCCC1` [cycloheptane] + CC[S+](CC)CC.O=S(=O)([N-]S(=O)(=O)C(F)(F)F)C(F)(F)F, the activity coefficient is 19.8 ± 1.4.

Take `C#CCCCCCC` [1-octyne] + CC[S+](CC)CC.O=S(=O)([N-]S(=O)(=O)C(F)(F)F)C(F)(F)F: the activity coefficient stood at 7.68 ± 0.52.

`Cc1cccc(C)c1` [1,3-dimethylbenzene] + CC[S+](CC)CC.O=S(=O)([N-]S(=O)(=O)C(F)(F)F)C(F)(F)F: the activity coefficient was 2.29 ± 0.16.

As for `O` [water] + CC[S+](CC)CC.O=S(=O)([N-]S(=O)(=O)C(F)(F)F)C(F)(F)F, the activity coefficient worked out at 3.91 ± 0.27.

In the case of `Cc1ccccc1C` [1,2-dimethylbenzene] + CC[S+](CC)CC.O=S(=O)([N-]S(=O)(=O)C(F)(F)F)C(F)(F)F, the activity coefficient was determined as 2.05 ± 0.14.

Turning to `C=CCCCCCC` [oct-1-ene] + CC[S+](CC)CC.O=S(=O)([N-]S(=O)(=O)C(F)(F)F)C(F)(F)F, the activity coefficient stood at 25 ± 1.7.

`CCCCCCCC` [octane] + CC[S+](CC)CC.O=S(=O)([N-]S(=O)(=O)C(F)(F)F)C(F)(F)F: the activity coefficient came to 53.3 ± 3.7.

Take `CCCCCCCCCC` [decane] + CC[S+](CC)CC.O=S(=O)([N-]S(=O)(=O)C(F)(F)F)C(F)(F)F: the activity coefficient was determined as 114 ± 8.

For `C1CCCCC1` [cyclohexane] + CC[S+](CC)CC.O=S(=O)([N-]S(=O)(=O)C(F)(F)F)C(F)(F)F, the activity coefficient was found to be 14.7 ± 1.

As to `Cc1ccccc1` [toluene] + CC[S+](CC)CC.O=S(=O)([N-]S(=O)(=O)C(F)(F)F)C(F)(F)F, the activity coefficient was determined as 1.56 ± 0.1.

The same data set, now with this note: 318.15 K; 101 kPa; Liquid; Chromatography; x1 = 0.
Take `C=CCCC` [1-pentene] + CC[S+](CC)CC.O=S(=O)([N-]S(=O)(=O)C(F)(F)F)C(F)(F)F: the activity coefficient stood at 8.06 ± 0.55.

As for `CCCCC` [pentane] + CC[S+](CC)CC.O=S(=O)([N-]S(=O)(=O)C(F)(F)F)C(F)(F)F, the activity coefficient is 18.3 ± 1.3.

For the compound `CCCCO` [butan-1-ol] + CC[S+](CC)CC.O=S(=O)([N-]S(=O)(=O)C(F)(F)F)C(F)(F)F, the activity coefficient is 2.96 ± 0.2.

Take `COC(C)(C)C` [2-methoxy-2-methylpropane] + CC[S+](CC)CC.O=S(=O)([N-]S(=O)(=O)C(F)(F)F)C(F)(F)F: the activity coefficient amounted to 2.96 ± 0.2.

For `C=CCCCCC` [1-heptene] + CC[S+](CC)CC.O=S(=O)([N-]S(=O)(=O)C(F)(F)F)C(F)(F)F, the activity coefficient came to 16.1 ± 1.1.

As for `c1ccccc1` [benzene] + CC[S+](CC)CC.O=S(=O)([N-]S(=O)(=O)C(F)(F)F)C(F)(F)F, the activity coefficient amounted to 1.11 ± 0.07.

Consider `C1CCCCCC1` [cycloheptane] + CC[S+](CC)CC.O=S(=O)([N-]S(=O)(=O)C(F)(F)F)C(F)(F)F, for which the activity coefficient came out at 18 ± 1.2.

Regarding `C#CCCCCCC` [1-octyne] + CC[S+](CC)CC.O=S(=O)([N-]S(=O)(=O)C(F)(F)F)C(F)(F)F, the activity coefficient was 7.51 ± 0.51.

Regarding `Cc1cccc(C)c1` [1,3-dimethylbenzene] + CC[S+](CC)CC.O=S(=O)([N-]S(=O)(=O)C(F)(F)F)C(F)(F)F, the activity coefficient was 2.31 ± 0.16.

In the case of `O` [water] + CC[S+](CC)CC.O=S(=O)([N-]S(=O)(=O)C(F)(F)F)C(F)(F)F, the activity coefficient is 3.39 ± 0.23.

Turning to `Cc1ccccc1C` [1,2-dimethylbenzene] + CC[S+](CC)CC.O=S(=O)([N-]S(=O)(=O)C(F)(F)F)C(F)(F)F, the activity coefficient stood at 2.07 ± 0.14.

Turning to `C=CCCCCCC` [oct-1-ene] + CC[S+](CC)CC.O=S(=O)([N-]S(=O)(=O)C(F)(F)F)C(F)(F)F, the activity coefficient was 23.2 ± 1.6.

In the case of `CCCCCCCC` [octane] + CC[S+](CC)CC.O=S(=O)([N-]S(=O)(=O)C(F)(F)F)C(F)(F)F, the activity coefficient stood at 47.9 ± 3.3.

Regarding `CCCCCCCCCC` [decane] + CC[S+](CC)CC.O=S(=O)([N-]S(=O)(=O)C(F)(F)F)C(F)(F)F, the activity coefficient turned out to be 101 ± 7.

Take `C1CCCCC1` [cyclohexane] + CC[S+](CC)CC.O=S(=O)([N-]S(=O)(=O)C(F)(F)F)C(F)(F)F: the activity coefficient was 13.5 ± 0.9.

As to `Cc1ccccc1` [toluene] + CC[S+](CC)CC.O=S(=O)([N-]S(=O)(=O)C(F)(F)F)C(F)(F)F, the activity coefficient was found to be 1.58 ± 0.1.

Staying with this data set, now noted: 328.15 K; 101 kPa; Liquid; Chromatography; x1 = 0.
Consider `C=CCCC` [1-pentene] + CC[S+](CC)CC.O=S(=O)([N-]S(=O)(=O)C(F)(F)F)C(F)(F)F, for which the activity coefficient amounted to 7.72 ± 0.53.

As to `CCCCC` [pentane] + CC[S+](CC)CC.O=S(=O)([N-]S(=O)(=O)C(F)(F)F)C(F)(F)F, the activity coefficient stood at 16.8 ± 1.1.

As to `CCCCO` [butan-1-ol] + CC[S+](CC)CC.O=S(=O)([N-]S(=O)(=O)C(F)(F)F)C(F)(F)F, the activity coefficient stood at 2.66 ± 0.18.

For `COC(C)(C)C` [2-methoxy-2-methylpropane] + CC[S+](CC)CC.O=S(=O)([N-]S(=O)(=O)C(F)(F)F)C(F)(F)F, the activity coefficient came out at 2.98 ± 0.2.

As to `C=CCCCCC` [1-heptene] + CC[S+](CC)CC.O=S(=O)([N-]S(=O)(=O)C(F)(F)F)C(F)(F)F, the activity coefficient amounted to 15.2 ± 1.

In the case of `c1ccccc1` [benzene] + CC[S+](CC)CC.O=S(=O)([N-]S(=O)(=O)C(F)(F)F)C(F)(F)F, the activity coefficient was determined as 1.12 ± 0.07.

Regarding `C1CCCCCC1` [cycloheptane] + CC[S+](CC)CC.O=S(=O)([N-]S(=O)(=O)C(F)(F)F)C(F)(F)F, the activity coefficient was determined as 16.5 ± 1.1.

On to `C#CCCCCCC` [1-octyne] + CC[S+](CC)CC.O=S(=O)([N-]S(=O)(=O)C(F)(F)F)C(F)(F)F, for which the activity coefficient was 7.35 ± 0.5.

Take `Cc1cccc(C)c1` [1,3-dimethylbenzene] + CC[S+](CC)CC.O=S(=O)([N-]S(=O)(=O)C(F)(F)F)C(F)(F)F: the activity coefficient was 2.33 ± 0.16.

As for `O` [water] + CC[S+](CC)CC.O=S(=O)([N-]S(=O)(=O)C(F)(F)F)C(F)(F)F, the activity coefficient came out at 2.97 ± 0.2.

As to `Cc1ccccc1C` [1,2-dimethylbenzene] + CC[S+](CC)CC.O=S(=O)([N-]S(=O)(=O)C(F)(F)F)C(F)(F)F, the activity coefficient came out at 2.09 ± 0.14.

With `C=CCCCCCC` [oct-1-ene] + CC[S+](CC)CC.O=S(=O)([N-]S(=O)(=O)C(F)(F)F)C(F)(F)F, the activity coefficient was 21.8 ± 1.5.

Take `CCCCCCCC` [octane] + CC[S+](CC)CC.O=S(=O)([N-]S(=O)(=O)C(F)(F)F)C(F)(F)F: the activity coefficient turned out to be 43.6 ± 3.

`CCCCCCCCCC` [decane] + CC[S+](CC)CC.O=S(=O)([N-]S(=O)(=O)C(F)(F)F)C(F)(F)F: the activity coefficient worked out at 89.6 ± 6.1.

As for `C1CCCCC1` [cyclohexane] + CC[S+](CC)CC.O=S(=O)([N-]S(=O)(=O)C(F)(F)F)C(F)(F)F, the activity coefficient was 12.4 ± 0.8.

Consider `Cc1ccccc1` [toluene] + CC[S+](CC)CC.O=S(=O)([N-]S(=O)(=O)C(F)(F)F)C(F)(F)F, for which the activity coefficient came out at 1.6 ± 0.11.

Staying with this data set, now noted: 338.15 K; 101 kPa; Liquid; Chromatography; x1 = 0.
For `C=CCCC` [1-pentene] + CC[S+](CC)CC.O=S(=O)([N-]S(=O)(=O)C(F)(F)F)C(F)(F)F, the activity coefficient amounted to 7.4 ± 0.5.

In the case of `CCCCC` [pentane] + CC[S+](CC)CC.O=S(=O)([N-]S(=O)(=O)C(F)(F)F)C(F)(F)F, the activity coefficient is 15.6 ± 1.1.
